Reference: patent US12252524B2, “GIP/GLP1 co-agonist compounds” (Eli Lilly and Company, priority 2018, dated 2025)
Numbered stars: 1 amine (or outer) side, 2 acyl side, 3 side chain; on linkers, the order of the positions; unused ones are H or OH. Square brackets hold non-standard residues; d marks the D form. Side chains are listed from the residue outwards. Peptide text beside a SMILES is read from it. * marks the point of attachment. C20 diacid = O=C(O)CCCCCCCCCCCCCCCCCCC(=O)*; αMePhe(2-F) = C[C@](N)(Cc1ccccc1F)C(=O)O; C16 diacid = O=C(O)CCCCCCCCCCCCCCC(=O)*; γGlu = O=C(O)[C@H](CCC(=O)[*:2])N[*:1]; αMeL = CC(C)C[C@](C)(N)C(=O)O; Dab = NCC[C@H](N)C(=O)O; AEEA = NCCOCCOCC(=O)O; Aib = CC(C)(N)C(=O)O

Assays:
[1] = biological target: human GLP-1 receptor (GLP-1R) (Homo sapiens, UniProt P43220); assay: cAMP pharmacological functional assay in presence of casein, hGLP-1R; assay type: cell-based; conditions: HEK293 cells expressing hGLP-1R, 0.1% Casein, geometric mean; read-out: hGLP1R cAMP Rel EC50 nM (SEM, n)
human GLP-1 receptor (GLP-1R), sequence (P43220 24-463): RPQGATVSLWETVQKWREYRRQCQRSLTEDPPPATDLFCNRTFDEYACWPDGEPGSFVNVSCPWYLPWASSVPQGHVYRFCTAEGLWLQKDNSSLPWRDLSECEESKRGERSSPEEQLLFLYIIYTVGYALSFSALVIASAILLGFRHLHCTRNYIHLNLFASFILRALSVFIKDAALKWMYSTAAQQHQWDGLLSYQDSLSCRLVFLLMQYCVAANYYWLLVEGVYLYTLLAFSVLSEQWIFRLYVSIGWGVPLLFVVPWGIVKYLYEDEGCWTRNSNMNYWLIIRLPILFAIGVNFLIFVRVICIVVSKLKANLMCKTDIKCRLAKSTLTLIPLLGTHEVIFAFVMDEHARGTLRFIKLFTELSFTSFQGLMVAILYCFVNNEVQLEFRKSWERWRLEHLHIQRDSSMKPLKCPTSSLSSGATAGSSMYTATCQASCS

[2] = biological target: T1, gastric inhibitory peptide receptor (GIPR) (Homo sapiens, UniProt P48546); assay: cAMP pharmacological functional assay in presence of casein, hGIPR; assay type: cell-based; conditions: HEK293 cells expressing hGIPR, 0.1% Casein, geometric mean; read-out: hGIPR cAMP Rel EC50 nM (SEM, n)
T1 sequence (P48546 22-466): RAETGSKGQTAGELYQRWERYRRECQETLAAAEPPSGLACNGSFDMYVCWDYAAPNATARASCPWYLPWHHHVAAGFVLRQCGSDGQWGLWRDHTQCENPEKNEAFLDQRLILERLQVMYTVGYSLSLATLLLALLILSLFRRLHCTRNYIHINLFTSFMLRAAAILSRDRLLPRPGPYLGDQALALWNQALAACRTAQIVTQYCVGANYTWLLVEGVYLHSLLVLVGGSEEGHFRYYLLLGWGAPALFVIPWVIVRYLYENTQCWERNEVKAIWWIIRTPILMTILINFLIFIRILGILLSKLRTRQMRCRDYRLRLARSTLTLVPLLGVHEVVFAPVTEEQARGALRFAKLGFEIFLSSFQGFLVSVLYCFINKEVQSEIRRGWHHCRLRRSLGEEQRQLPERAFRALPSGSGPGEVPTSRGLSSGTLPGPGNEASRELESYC

Compound	EC50 [1] [nM]	EC50 [2] [nM]
CC[C@H](C)[C@H](NC(=O)[C@H](CC(C)C)NC(=O)[C@H](Cc1ccc(O)cc1)NC(=O)[C@H](CCC(=O)O)NC(=O)[C@@H](NC(=O)[C@H](Cc1ccccc1)NC(=O)[C@H](C)NC(=O)C(C)(C)NC(=O)[C@H](CCC(N)=O)NC(=O)[C@H](C)NC(=O)[C@H](CCCCNC(=O)COCCOCCNC(=O)COCCOCCNC(=O)CC[C@H](NC(=O)CCCCCCCCCCCCCCCCCCC(=O)O)C(=O)O)NC(=O)[C@H](CCCCN)NC(=O)[C@H](CC(=O)O)NC(=O)[C@H](CC(C)C)NC(=O)[C@H](CC(C)C)NC(=O)[C@@H](NC(=O)[C@H](CO)NC(=O)[C@H](Cc1c[nH]cn1)NC(=O)[C@H](CC(=O)O)NC(=O)[C@H](CO)NC(=O)[C@@H](NC(=O)[C@H](Cc1ccccc1)NC(=O)[C@@H](NC(=O)CNC(=O)[C@H](CCC(=O)O)NC(=O)C(C)(C)NC(=O)[C@@H](N)Cc1ccc(O)cc1)[C@@H](C)O)[C@@H](C)O)[C@@H](C)CC)[C@@H](C)CC)C(=O)N[C@@H](CCC(=O)O)C(=O)NCC(=O)NCC(=O)N1CCC[C@H]1C(=O)N[C@@H](CO)C(=O)N[C@@H](CO)C(=O)NCC(=O)N[C@@H](C)C(=O)N1CCC[C@H]1C(=O)N1CCC[C@H]1C(=O)N1CCC[C@H]1C(=O)N[C@@H](CO)C(N)=O [Example 260] (H-Y[Aib]EGTFTSDHSILLDKK([AEEA-AEEA-γGlu-C20 diacid])AQ[Aib]AFIEYLIEGGPSSGAPPPS-NH2; N-terminus assumed)	0.408	0.617
CC[C@H](C)[C@H](NC(=O)[C@H](CC(C)C)NC(=O)[C@H](Cc1ccc(O)cc1)NC(=O)[C@@H](CCC(=O)O)NC(=O)[C@@H](NC(=O)[C@H](Cc1ccccc1)NC(=O)[C@@H](NC(=O)C(C)(C)NC(=O)[C@H](CCC(N)=O)NC(=O)[C@H](C)NC(=O)[C@H](CCCCNC(=O)COCCOCCNC(=O)COCCOCCNC(=O)CC[C@H](NC(=O)CCCCCCCCCCCCCCCCCCC(=O)O)C(=O)O)NC(=O)[C@H](CCN)NC(=O)[C@H](CC(=O)O)NC(=O)[C@H](CC(C)C)NC(=O)[C@](C)(CC(C)C)NC(=O)[C@@H](NC(=O)[C@H](CO)NC(=O)[C@H](Cc1c[nH]cn1)NC(=O)[C@H](CC(=O)O)NC(=O)[C@H](CO)NC(=O)[C@@H](NC(=O)[C@](C)(Cc1ccccc1F)NC(=O)[C@@H](NC(=O)CNC(=O)[C@H](CCC(=O)O)NC(=O)C(C)(C)NC(=O)[C@@H](N)Cc1ccc(O)cc1)[C@@H](C)O)[C@@H](C)O)[C@@H](C)CC)[C@@H](C)O)[C@@H](C)CC)C(=O)N[C@@H](CCC(=O)O)C(=O)NCC(=O)NCC(=O)N1CCC[C@H]1C(=O)N[C@@H](CO)C(=O)N[C@@H](CO)C(=O)NCC(=O)N[C@@H](C)C(=O)N1CCC[C@H]1C(=O)N1CCC[C@H]1C(=O)N1CCC[C@H]1C(=O)N[C@@H](CO)C(N)=O [Example 172] (H-Y[Aib]EGT[αMePhe(2-F)]TSDHSI[αMeL]LD[Dab]K([AEEA-AEEA-γGlu-C20 diacid])AQ[Aib]TFI[dE]YLIEGGPSSGAPPPS-NH2; N-terminus assumed)	1.2	1.05
CC[C@H](C)[C@H](NC(=O)[C@H](CC(C)C)NC(=O)[C@H](Cc1ccc(O)cc1)NC(=O)[C@H](CCC(=O)O)NC(=O)[C@@H](NC(=O)[C@H](Cc1ccccc1)NC(=O)[C@H](C)NC(=O)[C@H](CCCNC(=N)N)NC(=O)[C@H](CCC(N)=O)NC(=O)[C@H](C)NC(=O)[C@H](CCCCNC(=O)COCCOCCNC(=O)COCCOCCNC(=O)CC[C@H](NC(=O)CCCCCCCCCCCCCCCCCCC(=O)O)C(=O)O)NC(=O)[C@H](CCCCN)NC(=O)[C@H](CC(=O)O)NC(=O)[C@H](CC(C)C)NC(=O)[C@H](CC(C)C)NC(=O)[C@@H](NC(=O)[C@H](CO)NC(=O)[C@H](Cc1ccc(O)cc1)NC(=O)[C@H](CC(=O)O)NC(=O)[C@H](CO)NC(=O)[C@@H](NC(=O)[C@H](Cc1ccccc1)NC(=O)[C@@H](NC(=O)CNC(=O)[C@H](CCC(=O)O)NC(=O)C(C)(C)NC(=O)[C@@H](N)Cc1ccc(O)cc1)[C@@H](C)O)[C@@H](C)O)[C@@H](C)CC)[C@@H](C)CC)C(=O)N[C@@H](CCC(=O)O)C(=O)NCC(=O)NCC(=O)N1CCC[C@H]1C(=O)N[C@@H](CO)C(=O)N[C@@H](CO)C(=O)NCC(=O)N[C@@H](C)C(=O)N1CCC[C@H]1C(=O)N1CCC[C@H]1C(=O)N1CCC[C@H]1C(=O)N[C@@H](CO)C(N)=O [Example 257] (H-Y[Aib]EGTFTSDYSILLDKK([AEEA-AEEA-γGlu-C20 diacid])AQRAFIEYLIEGGPSSGAPPPS-NH2; N-terminus assumed)	0.0779	0.474
CC[C@H](C)[C@H](NC(=O)[C@H](CCCCN)NC(=O)[C@H](CC(=O)O)NC(=O)[C@H](CC(C)C)NC(=O)[C@H](CC(C)C)NC(=O)[C@@H](NC(=O)[C@H](CO)NC(=O)[C@H](Cc1ccc(O)cc1)NC(=O)[C@H](CC(=O)O)NC(=O)[C@H](CO)NC(=O)[C@@H](NC(=O)[C@H](Cc1ccccc1)NC(=O)[C@@H](NC(=O)CNC(=O)[C@H](CCC(=O)O)NC(=O)C(C)(C)NC(=O)[C@@H](N)Cc1ccc(O)cc1)[C@@H](C)O)[C@@H](C)O)[C@@H](C)CC)C(=O)N[C@@H](C)C(=O)N[C@@H](CCC(N)=O)C(=O)NC(C)(C)C(=O)N[C@@H](CCCCNC(=O)COCCOCCNC(=O)COCCOCCNC(=O)CC[C@H](NC(=O)CCCCCCCCCCCCCCCCCCC(=O)O)C(=O)O)C(=O)N[C@@H](Cc1ccccc1)C(=O)N[C@H](C(=O)N[C@@H](CCC(=O)O)C(=O)N[C@@H](Cc1ccc(O)cc1)C(=O)N[C@@H](CC(C)C)C(=O)N[C@H](C(=O)N[C@@H](CCC(=O)O)C(=O)NCC(=O)NCC(N)=O)[C@@H](C)CC)[C@@H](C)CC [Example 72] (H-Y[Aib]EGTFTSDYSILLDKIAQ[Aib]K([AEEA-AEEA-γGlu-C20 diacid])FIEYLIEGG-NH2)	0.906	0.252
CC[C@H](C)[C@H](NC(=O)[C@H](CC(C)C)NC(=O)[C@H](Cc1ccc(O)cc1)NC(=O)[C@@H](CCC(=O)O)NC(=O)[C@@H](NC(=O)[C@H](Cc1ccccc1)NC(=O)[C@@H](NC(=O)C(C)(C)NC(=O)[C@H](CCC(N)=O)NC(=O)[C@H](C)NC(=O)[C@H](CCCCNC(=O)COCCOCCNC(=O)COCCOCCNC(=O)CC[C@H](NC(=O)CCCCCCCCCCCCCCC(=O)O)C(=O)O)NC(=O)[C@H](CCC(=O)O)NC(=O)[C@H](CC(=O)O)NC(=O)[C@H](CC(C)C)NC(=O)[C@](C)(CC(C)C)NC(=O)[C@@H](NC(=O)[C@H](CO)NC(=O)[C@H](Cc1c[nH]cn1)NC(=O)[C@H](CC(=O)O)NC(=O)[C@H](CO)NC(=O)[C@@H](NC(=O)[C@](C)(Cc1ccccc1F)NC(=O)[C@@H](NC(=O)CNC(=O)[C@H](CCC(=O)O)NC(=O)C(C)(C)NC(=O)[C@@H](N)Cc1ccc(O)cc1)[C@@H](C)O)[C@@H](C)O)[C@@H](C)CC)[C@@H](C)O)[C@@H](C)CC)C(=O)N[C@@H](CCC(=O)O)C(=O)NCC(=O)NCC(=O)N1CCC[C@H]1C(=O)N[C@@H](CO)C(=O)N[C@@H](CO)C(=O)NCC(=O)N[C@@H](C)C(=O)N1CCC[C@H]1C(=O)N1CCC[C@H]1C(=O)N1CCC[C@H]1C(=O)N[C@@H](CO)C(N)=O [Example 170] (H-Y[Aib]EGT[αMePhe(2-F)]TSDHSI[αMeL]LDEK([AEEA-AEEA-γGlu-C16 diacid])AQ[Aib]TFI[dE]YLIEGGPSSGAPPPS-NH2)	10.4	0.569
CC[C@H](C)[C@H](NC(=O)[C@H](CC(C)C)NC(=O)[C@H](Cc1ccc(O)cc1)NC(=O)[C@@H](CCC(=O)O)NC(=O)[C@@H](NC(=O)[C@H](Cc1ccccc1)NC(=O)[C@@H](NC(=O)C(C)(C)NC(=O)[C@H](CCC(N)=O)NC(=O)[C@H](C)NC(=O)[C@H](CCCCNC(=O)COCCOCCNC(=O)COCCOCCNC(=O)CC[C@H](NC(=O)CC[C@H](NC(=O)CCCCCCCCCCCCCCCCCCC(=O)O)C(=O)O)C(=O)O)NC(=O)[C@H](CCC(=O)O)NC(=O)[C@H](CC(=O)O)NC(=O)[C@H](CC(C)C)NC(=O)[C@](C)(CC(C)C)NC(=O)[C@@H](NC(=O)[C@H](CO)NC(=O)[C@H](Cc1c[nH]cn1)NC(=O)[C@H](CC(=O)O)NC(=O)[C@H](CO)NC(=O)[C@@H](NC(=O)[C@](C)(Cc1ccccc1F)NC(=O)[C@@H](NC(=O)CNC(=O)[C@H](CCC(=O)O)NC(=O)C(C)(C)NC(=O)[C@@H](N)Cc1ccc(O)cc1)[C@@H](C)O)[C@@H](C)O)[C@@H](C)CC)[C@@H](C)O)[C@@H](C)CC)C(=O)N[C@@H](CCC(=O)O)C(=O)NCC(=O)NCC(=O)N1CCC[C@H]1C(=O)N[C@@H](CO)C(=O)N[C@@H](CO)C(=O)NCC(N)=O [Example 161] (H-Y[Aib]EGT[αMePhe(2-F)]TSDHSI[αMeL]LDEK([AEEA-AEEA-γGlu-γGlu-C20 diacid])AQ[Aib]TFI[dE]YLIEGGPSSG-NH2)	4.8	0.254
